US6649654B1, “Methods for identifying and using IKK inhibitors” (The Regents of the University of California, priority 1999, dated 2003)
Read-outs that look alike come from different tables or passages of the source.

Columns and labels:
NF-κB = NF-κB activation / DNA-binding activity by EMSA in stimulated HeLa cells; type: cell-based, human; conditions: for effect on NF-κB activation: HeLa cells stimulated with TNFα (PGA1: IL-1 or TNFα); for IC50: Homo sapiens, HeLa cells
Description: (§1) Cells used in the experiments described herein were cultured in either RPMI 1640 (Jurkat cells) or DMEM (HeLa and COS cells), supplemented with 10% FBS and antibiotics. Cells were stimulated with either 25 ng/ml TPA, 20 ng/ml recombinant TNFα, or 10 ng/ml interleukin 1β (Sigma). PGA1, 15dPGJ2, T×B2, LTB4, AA and other PGs (Cayman) dissolved in ethanol were used as well, as known in the art (See e.g., Rossi et al., 94:746-750 [1997]). Controls received equal amounts of ethanol. Transfections were performed using Lipofectamine Plus (GIBCO) for HeLa and COS cells and DEAE-dextran (Sigma) for Jurkat cells. Xpress-tagged NIK, Xpress-tagged MEKK1, HA-tagged IKKα, and HA-tagged IKKβ were also used (See e.g., Zandi et al., Science 281:1360-1363 [1998]; and Delhase et al., Science 284:309-313 [1999]). COX2 and cPLA2 expression vectors were obtained from Dr. L. Feng (See also, Hirose et al., J. Am. Soc. Nephrol., 9:408-416 [1998]). PGD synthase was cloned from HT29 colon carcinoma cell line cDNA by PCR and subcloned into a pCDNA3 vector. Cells were lysed in buffer B (50 mM Tris-HCl, pH 7.5, 400 mM NaCl, 1 mM EDTA, 1 mM EGTA, 1% Triton, 0.5% NP-40, 10% glycerol, and supplemented with 20 mM β-glycerophosphate, 10 mM PNPP, 500 mM Na3VO4, 1 mM PMSF, 20 μg/ml aprotinin, 2.5 μg/ml leupeptin, 8.3 μg/ml bestatin, 1.7 μg/ml pepstatin, and 2 mM DTT).
Aliquots of total extracts (15 μg protein) in buffer B were incubated with a ^32P-labeled κB DNA, followed by analysis of DNA-binding activities by EMSA on 4% PAGE gels, as known in the art (See, Rossi et al., supra). Specificity of protein-DNA complexes was verified by supershift with polyclonal antibodies specific for p65 (Rel A).

IKK = IKK (Homo sapiens, UniProt O14920+O15111); test: MEKK1-induced IKK activity in Jurkat cells; type: cell-based; conditions: data not shown
IKK, sequence (O14920 whole entry): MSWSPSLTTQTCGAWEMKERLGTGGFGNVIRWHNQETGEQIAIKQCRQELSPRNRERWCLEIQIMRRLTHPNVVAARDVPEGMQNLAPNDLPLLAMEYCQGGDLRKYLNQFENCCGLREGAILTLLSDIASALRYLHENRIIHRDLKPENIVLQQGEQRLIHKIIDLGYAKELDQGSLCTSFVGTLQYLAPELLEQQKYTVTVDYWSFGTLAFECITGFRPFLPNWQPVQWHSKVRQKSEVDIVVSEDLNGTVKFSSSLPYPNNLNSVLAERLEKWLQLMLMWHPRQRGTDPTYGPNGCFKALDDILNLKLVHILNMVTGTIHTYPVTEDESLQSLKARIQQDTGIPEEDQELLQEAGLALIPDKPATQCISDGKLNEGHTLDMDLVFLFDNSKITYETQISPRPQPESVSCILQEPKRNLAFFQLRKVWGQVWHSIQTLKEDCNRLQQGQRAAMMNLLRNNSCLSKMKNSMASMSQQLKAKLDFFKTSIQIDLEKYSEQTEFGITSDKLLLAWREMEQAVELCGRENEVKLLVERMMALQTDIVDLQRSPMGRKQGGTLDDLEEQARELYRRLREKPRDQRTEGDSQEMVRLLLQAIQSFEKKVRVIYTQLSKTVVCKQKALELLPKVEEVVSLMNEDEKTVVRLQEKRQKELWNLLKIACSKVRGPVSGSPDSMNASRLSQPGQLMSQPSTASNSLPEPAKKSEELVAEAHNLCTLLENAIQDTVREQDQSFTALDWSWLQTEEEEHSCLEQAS
IKK, sequence (O15111 whole entry): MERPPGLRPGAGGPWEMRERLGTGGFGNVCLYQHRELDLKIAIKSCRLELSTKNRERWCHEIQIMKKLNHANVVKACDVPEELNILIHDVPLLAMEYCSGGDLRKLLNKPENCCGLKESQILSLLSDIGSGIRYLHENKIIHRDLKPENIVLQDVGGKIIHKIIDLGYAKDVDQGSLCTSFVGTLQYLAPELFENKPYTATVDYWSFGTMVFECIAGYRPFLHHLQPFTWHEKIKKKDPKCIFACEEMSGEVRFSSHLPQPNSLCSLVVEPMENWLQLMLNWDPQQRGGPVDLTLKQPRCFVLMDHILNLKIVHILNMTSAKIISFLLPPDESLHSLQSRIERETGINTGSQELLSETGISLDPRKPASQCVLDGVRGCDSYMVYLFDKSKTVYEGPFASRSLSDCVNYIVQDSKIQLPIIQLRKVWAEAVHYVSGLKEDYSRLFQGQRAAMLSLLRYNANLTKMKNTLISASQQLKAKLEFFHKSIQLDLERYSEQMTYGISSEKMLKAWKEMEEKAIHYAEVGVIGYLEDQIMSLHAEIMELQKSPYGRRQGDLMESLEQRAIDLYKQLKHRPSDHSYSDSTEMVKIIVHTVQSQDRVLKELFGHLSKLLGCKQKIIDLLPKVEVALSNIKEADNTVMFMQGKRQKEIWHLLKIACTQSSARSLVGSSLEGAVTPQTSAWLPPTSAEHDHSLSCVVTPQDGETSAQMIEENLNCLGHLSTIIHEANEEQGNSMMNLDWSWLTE
IKK, sequence (Q9Y6K9 whole entry partner): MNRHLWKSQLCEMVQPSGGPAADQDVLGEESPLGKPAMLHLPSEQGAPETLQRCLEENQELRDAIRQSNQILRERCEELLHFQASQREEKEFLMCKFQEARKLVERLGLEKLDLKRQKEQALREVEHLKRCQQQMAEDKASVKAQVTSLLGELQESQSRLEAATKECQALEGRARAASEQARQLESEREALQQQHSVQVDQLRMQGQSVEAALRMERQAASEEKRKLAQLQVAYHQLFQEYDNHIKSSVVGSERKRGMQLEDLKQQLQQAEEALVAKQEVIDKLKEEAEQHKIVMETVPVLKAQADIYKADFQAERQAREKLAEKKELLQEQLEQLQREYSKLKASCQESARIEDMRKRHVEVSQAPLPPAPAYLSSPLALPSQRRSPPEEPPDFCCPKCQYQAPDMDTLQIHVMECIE
Description: as §1, with “Cells were lysed in buffer B (50 mM Tris-HCl, pH 7.5, 400 mM NaCl, 1 mM EDTA, 1 mM EGTA, 1% Triton, 0.5% NP-40, 10% glycerol, and supplemented with 20 mM β-glycerophosphate, 10 mM PNPP, 500 mM Na3VO4, 1 mM PMSF, 20 μg/ml aprotinin, 2.5 μg/ml leupeptin, 8.3 μg/ml bestatin, 1.7 μg/ml pepstatin, and 2 mM DTT).” left out
Cell lysates were incubated with anti-IKKα (Pharmingen), anti-HA (12CA5; Pharmingen), anti-JNK1 (333.8; Pharmingen), or anti-p38 (New England Biolabs) for 2 hours. […] Endogenous IKK, HA-tagged IKKα, endogenous JNK1, and p38 activities were determined with GST-1κBα(1-54), GST-c-Jun(1-79), and GST-ATF2 as substrates.

IKKβ(C179A) = target: T1, IKKβ(C179A) (Homo sapiens, UniProt O14920, C179A); test: Recombinant IKKβ(C179A) (Sf9) kinase activity; type: biochemical; design: FLAG; made in house; host or cells: Sf9 (baculovirus); conditions: FIG. 6D; PGA1 data not shown
T1 sequence (O14920 1-756 C179A): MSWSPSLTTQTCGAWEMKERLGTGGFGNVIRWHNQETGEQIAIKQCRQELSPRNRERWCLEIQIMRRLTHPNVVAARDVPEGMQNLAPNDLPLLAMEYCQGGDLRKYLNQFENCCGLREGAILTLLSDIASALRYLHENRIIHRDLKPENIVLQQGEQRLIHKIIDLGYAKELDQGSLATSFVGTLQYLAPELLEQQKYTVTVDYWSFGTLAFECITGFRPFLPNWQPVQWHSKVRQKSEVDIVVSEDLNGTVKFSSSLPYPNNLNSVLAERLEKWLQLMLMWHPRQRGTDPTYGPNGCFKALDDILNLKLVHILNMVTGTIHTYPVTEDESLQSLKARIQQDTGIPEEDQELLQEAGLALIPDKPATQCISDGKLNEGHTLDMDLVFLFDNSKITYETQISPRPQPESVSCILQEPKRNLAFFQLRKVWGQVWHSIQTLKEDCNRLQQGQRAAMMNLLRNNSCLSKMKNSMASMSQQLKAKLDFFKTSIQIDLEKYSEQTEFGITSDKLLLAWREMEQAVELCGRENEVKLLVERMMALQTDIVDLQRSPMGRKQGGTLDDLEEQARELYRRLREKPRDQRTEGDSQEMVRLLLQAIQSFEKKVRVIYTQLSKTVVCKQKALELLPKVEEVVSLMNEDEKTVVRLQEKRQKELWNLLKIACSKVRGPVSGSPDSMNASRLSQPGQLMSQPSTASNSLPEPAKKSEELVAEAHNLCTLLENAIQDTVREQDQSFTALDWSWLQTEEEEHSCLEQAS
Description: In addition, recombinant IKKβ was expressed in Sf9 cells and purified as described (Zandi et al., supra). AA, PGs, LTB4, and T×B2 were added to washed imnmunoprecipitates of recombinant IKKβ in kinase buffer to a final volume of 500 μl. After 1.5 hours at 4° C., the immunoprecipitates were washed and the kinase activity determined. Western blot analysis was also performed as known in the art (See e.g., Rossi et al., supra).

JNK1 = target: T2, JNK1 (Homo sapiens, UniProt P45983); test: In vitro JNK1 kinase activity; type: biochemical; conditions: in vitro incubation with up to 60 μM
T2 construct: Endogenous IKK, HA-tagged IKKα, endogenous JNK1, and p38 activities were determined; endogenous in cells
T2 sequence (P45983 whole entry): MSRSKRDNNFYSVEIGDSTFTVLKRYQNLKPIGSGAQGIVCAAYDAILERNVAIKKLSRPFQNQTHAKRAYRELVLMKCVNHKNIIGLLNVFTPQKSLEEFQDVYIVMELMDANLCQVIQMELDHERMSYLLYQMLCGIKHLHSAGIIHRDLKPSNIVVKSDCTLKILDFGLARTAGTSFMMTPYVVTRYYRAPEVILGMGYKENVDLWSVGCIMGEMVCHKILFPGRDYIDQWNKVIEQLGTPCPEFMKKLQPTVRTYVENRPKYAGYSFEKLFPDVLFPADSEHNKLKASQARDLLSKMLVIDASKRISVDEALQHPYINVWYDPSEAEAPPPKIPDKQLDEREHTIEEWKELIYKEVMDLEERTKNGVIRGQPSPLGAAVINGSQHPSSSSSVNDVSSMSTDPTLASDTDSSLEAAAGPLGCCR
Description: Cell lysates were incubated with anti-IKKα (Pharmingen), anti-HA (12CA5; Pharmingen), anti-JNK1 (333.8; Pharmingen), or anti-p38 (New England Biolabs) for 2 hours. Then, 15 μl protein A-Sepharose (Sigma) were added and the mixture was allowed to incubate for 1 hour. After extensive washing, kinase assays were performed as known in the art (See e.g., DiDonato et al., Nature 388:548-554 [1997]). Endogenous IKK, HA-tagged IKKα, endogenous JNK1, and p38 activities were determined with GST-1κBα(1-54), GST-c-Jun(1-79), and GST-ATF2 as substrates.
Endogenous IKK was immunoprecipitated from TNFα-stimulated HeLa cells and the kinase activity determined in the presence of different concentrations of PGA1 (the results of which are shown in FIG. 2B) or 15dPGJ2 (the results of which are shown in FIG. 2C).

[1] = test system: inducible nitric oxide synthase (iNOS); conditions: activated monocytes; cited from earlier work
[2] = test system: carrageenin-induced pleurisy; conditions: rats, endogenous and exogenous 15dPGJ2; Gilroy et al.; cited from earlier work

SMILES	effect on NF-κB activation (NF-κB)	IC50 (NF-κB; read-out: IC50 towards NF-κB) [µM]	IC50 (NF-κB; read-out: half-maximal inhibition towards NF-κB) [µM]	effect on MEKK1-induced IKK activity (IKK)	sensitivity of recombinant IKKβ(C179A) (IKKβ(C179A))	IC50 (NF-κB; TNFα, read-out: IC50 for inhibition of NF-κB DNA binding activity) [µM]	IC50 (NF-κB; TNFα, read-out: IC50 for inhibition of NF-κB DNA-binding activity) [µM]	inhibition of JNK1 activity in vitro (JNK1)	production of inducible nitric oxide synthase (iNOS) [1]	anti-inflammatory effect [2]
CCCCC[C@H](O)/C=C/[C@H]1C=CC(=O)C1CCCCCCC(=O)O (stereo partly drawn) [PGA1, prostaglandin A1]	prevented	65	65	inhibited	resistant	–	–	–	–	–
CCCCC/C=C/C=C1/C(=O)C=C[C@@H]1C/C=C\CCCC(=O)O [15dPGJ2, 15-deoxy-Δ^12-14-PGJ2]	inhibited	–	–	–	resistant	2.25	2.25	No significant inhibition	inhibits	anti-inflammatory effect
